Measured values: PubChem BioAssay AID1963866 (Molecular Pharmacology Branch, DTP, NCI, 2024)

System: PDC KRAS tumor spheroids with HUVEC/MSC, viability
Assay: Anticancer human tumor 349418-098-R-PDC patient-derived lung adenocarcinoma cell line growth inhibition [KRAS2]
Details: for IC50: curve of first compound; for viability, T/C: stronger effect = lower value
From the text: Multicellular complex tumor spheroid response to RAS pathway inhibitors in combination with a targeted agents in patient-derived cell lines with oncogenic KRAS variants from multiple cancer types
A high-throughput screen of multi-cell type tumor spheroids was designed to identify active combinations of targeted small molecules and KRAS pathway inhibitors. Complex spheroids include a stromal component modeled by human endothelial cells (HUVEC) and fibroblasts modeled by human mesenchymal stem cells (MSCs). The concentration ranges selected for each drug and investigational agent were based upon clinically achievable concentrations if the clinical Cmax of the agent was known.
Compounds. The drugs and investigational agents: BI-3406 (NSC825286), BAY-293 (NSC824723), batoprotafib (TNO155; NSC825523), sotorasib (AMG 510; NSC818433), MRTX1257 (NSC819558), elimusertib (BAY 1895344; NSC800525), molibresib (GSK525762; NSC774829), temuterkib (LY3214996; NSC803410), venetoclax (NSC766270), alisertib (NSC759677), olaparib (NSC753686), talazoparib (NSC767125), erdafitinib (NSC781556), ipatasertib (NSC767898), cabozantinib (NSC761068), nintedanib (NSC756659), abemaciclib (NSC768073), docetaxel (NSC628503), trametinib (NSC758246), and sapanisertib (NSC764658) were obtained from the National Cancer Institute (NCI) Developmental Therapeutics Program Chemical Repository. The FDA-approved anticancer drug set is available from the Developmental Therapeutics Program. […] The stock solutions were prepared in dimethyl sulfoxide (DMSO, Sigma-Aldrich, St. Louis, MO, cat. D2650) at 800-fold the tested concentration and stored at -70 degrees C prior to their use. All drugs and investigational agents were tested over a range starting from a high concentration at or near the clinical Cmax and decreasing in half-log increments. If the clinical Cmax for an agent had not been determined, the highest concentration tested was 10 microM.
Cell Culture. All cells were maintained in an incubator at 37 degrees C and 5% CO2 with 95% humidity. The PDC lines were cultured according to standard operating procedures established by the NCI PDMR (https://pdmr.cancer.gov/sops/default.htm). Briefly, all PDCs were thawed and cultured in Matrigel-coated flasks prepared with a working solution of 1X Ham's F-12 nutrient mix, without supplementation (Invitrogen, Waltham, MA, cat. 11765054), 100 U/mL penicillin-streptomycin (Invitrogen, cat. 15140122), and 2.5% Matrigel (Corning Inc., Corning, NY, cat. 354248) for the first three passages. All PDCs were cultured in complete DMEM/F-12 media containing advanced DMEM/F-12 (Invitrogen, cat. 12634028), 4.9% defined fetal bovine serum, heat inactivated (HyClone Laboratories Inc., Logan, UT, cat. SH30070.03HI), 389 ng/mL hydrocortisone (Sigma-Aldrich, cat. H4001), 9.7 ng/mL human EGF recombinant protein (Invitrogen, cat. PHG0313), 23.4 microg/mL adenine (Sigma-Aldrich, cat. A2786), 97.3 U/mL penicillin-streptomycin (Invitrogen, cat. 15140122), 1.9 mM L-glutamine (Invitrogen, cat. 25030081), and 9.7 microM Y-27632 dihydrochloride (Tocris Bioscience, Bristol, United Kingdom, cat. 1254). The PDCs were cultured in complete DMEM/F12 media without 9.7 microM Y-27632 dihydrochloride for at least two passages prior to the screen. The established cell line HOP-62 was cultured in RPMI 1640 medium, HEPES (Invitrogen, cat. 22400105) with 10% defined fetal bovine serum (HyClone Laboratories Inc., cat. SH30070.03) and 2 mM L-glutamine (Invitrogen, cat. 25030081). The pooled donor HUVEC were cultured in endothelial cell growth medium 2 (PromoCell, Heidelberg, Germany, cat. C-22011) and the hMSC were cultured in mesenchymal stem cell growth medium 2 (PromoCell, cat. C-28009). For all experiments, HUVEC and hMSC were used at passages </=5, while the malignant cell lines were used at passages </=15. […]

[1] = second compound 0.1 µM, first compound 0.0316 µM
[2] = second compound 0.1 µM, first compound 0.1 µM
[3] = second compound 0.1 µM, first compound 0.316 µM
[4] = second compound 0.1 µM, first compound 1 µM
[5] = second compound 0.1 µM, first compound 3.16 µM
[6] = second compound 0.1 µM, first compound 10 µM
[7] = second compound 0.316 µM, first compound 0.0316 µM
[8] = second compound 0.316 µM, first compound 0.1 µM
[9] = second compound 0.316 µM, first compound 0.316 µM
[10] = second compound 0.316 µM, first compound 1 µM
[11] = second compound 0.316 µM, first compound 3.16 µM
[12] = second compound 0.316 µM, first compound 10 µM
[13] = second compound 1 µM, first compound 0.0316 µM
[14] = second compound 1 µM, first compound 0.1 µM
[15] = second compound 1 µM, first compound 0.316 µM
[16] = second compound 1 µM, first compound 1 µM
[17] = second compound 1 µM, first compound 3.16 µM
[18] = second compound 1 µM, first compound 10 µM
[19] = second compound 3.16 µM, first compound 0.0316 µM
[20] = second compound 3.16 µM, first compound 0.1 µM
[21] = second compound 3.16 µM, first compound 0.316 µM
[22] = second compound 3.16 µM, first compound 1 µM
[23] = second compound 3.16 µM, first compound 3.16 µM
[24] = second compound 3.16 µM, first compound 10 µM
[25] = second compound 10 µM, first compound 0.0316 µM
[26] = second compound 10 µM, first compound 0.1 µM
[27] = second compound 10 µM, first compound 0.316 µM
[28] = second compound 10 µM, first compound 1 µM
[29] = second compound 10 µM, first compound 3.16 µM
[30] = second compound 10 µM, first compound 10 µM
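Further: spheroids exposed to compounds for seven days before readout.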

| SMILES | IC50 (second compound 0.1 µM) | IC50 (second compound 0.316 µM) | IC50 (second compound 1 µM) | IC50 (second compound 3.16 µM) | IC50 (second compound 10 µM) | viability, T/C [1] | viability, T/C [2] | viability, T/C [3] | viability, T/C [4] | viability, T/C [5] | viability, T/C [6] | viability, T/C [7] | viability, T/C [8] | viability, T/C [9] | viability, T/C [10] | viability, T/C [11] | viability, T/C [12] | viability, T/C [13] | viability, T/C [14] | viability, T/C [15] | further results |
| --- | --- | --- | --- | --- | --- | --- | --- | --- | --- | --- | --- | --- | --- | --- | --- | --- | --- | --- | --- | --- | --- |
| COc1cc(Nc2ncc3c(n2)-c2ccc(Cl)cc2C(c2c(F)cccc2OC)=NC3)ccc1C(=O)O + C=CC(=O)N1CCN(c2nc(=O)n(-c3c(C)ccnc3C(C)C)c3nc(-c4c(O)cccc4F)c(F)cc23)C(C)C1 | < 31.6 nM | < 31.6 nM | < 31.6 nM | < 31.6 nM | < 31.6 nM | 29% | 18.9% | 20.6% | 42.2% | 61.3% | 39.2% | 45.5% | 34.7% | 50.7% | 59.3% | 42.7% | 37.5% | 14.8% | 32.8% | 54.8% | viability, T/C [16]: 69.5%; viability, T/C [17]: 53.1%; viability, T/C [18]: 42.8%; viability, T/C [19]: 30.7%; viability, T/C [20]: 32%; viability, T/C [21]: 48.5%; viability, T/C [22]: 37.5%; viability, T/C [23]: 40.9%; viability, T/C [24]: 35.7%; viability, T/C [25]: 29.8%; viability, T/C [26]: 39.5%; viability, T/C [27]: 33.7%; viability, T/C [28]: 35.4%; viability, T/C [29]: 36.8%; viability, T/C [30]: 29.3% |
| COc1cc2nccc(Oc3ccc(NC(=O)C4(C(=O)Nc5ccc(F)cc5)CC4)cc3)c2cc1OC + C=CC(=O)N1CCN(c2nc(=O)n(-c3c(C)ccnc3C(C)C)c3nc(-c4c(O)cccc4F)c(F)cc23)C(C)C1 | 1690 nM | 1650 nM | 1610 nM | 1190 nM | < 31.6 nM | 99.4% | 98.3% | 90.7% | 78.6% | 13.2% | 18.1% | 93.2% | 92.2% | 86.4% | 75.9% | 9.48% | 22.8% | 83.2% | 80.7% | 73.2% | viability, T/C [16]: 76.7%; viability, T/C [17]: 10.7%; viability, T/C [18]: 14.3%; viability, T/C [19]: 62.1%; viability, T/C [20]: 64.5%; viability, T/C [21]: 58.6%; viability, T/C [22]: 56.4%; viability, T/C [23]: 10.2%; viability, T/C [24]: 16.6%; viability, T/C [25]: 30.1%; viability, T/C [26]: 38.1%; viability, T/C [27]: 36%; viability, T/C [28]: 30.1%; viability, T/C [29]: 7.88%; viability, T/C [30]: 9.17% |
